Legend:
[1] = target: Serine/threonine-protein kinase VRK2 (Homo sapiens) (UniProt Q86Y07); details: Compound concentration 1000.0 nM
[2] = target: 5-hydroxytryptamine receptor 7 (Homo sapiens) (UniProt P34969); experiment: 5HT7/H Cerep selectivity data (BI); details: Compound concentration 20.0 uM
[3] = target: Adenosine receptor A3 (Homo sapiens) (UniProt P0DMS8); experiment: A3/H Cerep selectivity data (BI); details: Compound concentration 20.0 uM
[4] = target: L-type Ca2+ channel (dihydropyridine site), Cav1.2 alpha-1C (Rattus norvegicus, UniProt P22002); experiment: CA+/DHPSI/R Cerep selectivity data (BI); parameters: mode of action inhibitor; details: rat brain, probe [3H](+)PN200-110, compound concentration 20 uM, read-out: % Ctrl
[5] = target: Endothelin receptor type B (Homo sapiens) (UniProt P24530); experiment: ETB/H Cerep selectivity data (BI); details: Compound concentration 20.0 uM
Sequence of Endothelin receptor type B (Homo sapiens) (P24530 whole entry): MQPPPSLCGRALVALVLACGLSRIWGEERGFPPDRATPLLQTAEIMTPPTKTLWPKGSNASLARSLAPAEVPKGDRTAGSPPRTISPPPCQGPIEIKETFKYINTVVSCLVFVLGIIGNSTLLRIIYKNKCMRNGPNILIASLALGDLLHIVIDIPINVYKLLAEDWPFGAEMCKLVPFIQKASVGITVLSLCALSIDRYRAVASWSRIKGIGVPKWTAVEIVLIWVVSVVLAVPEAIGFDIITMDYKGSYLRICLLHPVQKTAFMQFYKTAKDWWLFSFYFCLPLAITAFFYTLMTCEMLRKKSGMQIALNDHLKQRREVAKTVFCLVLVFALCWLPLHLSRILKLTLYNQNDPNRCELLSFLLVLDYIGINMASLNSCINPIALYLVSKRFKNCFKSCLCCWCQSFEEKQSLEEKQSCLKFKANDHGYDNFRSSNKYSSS

[6] = target: MAO-A (amine oxidase [flavin-containing] A) (Rattus norvegicus, UniProt P21396); experiment: MAO-A_ANTAG Cerep selectivity data (BI); parameters: mode of action antagonist; scale not given: the % may be the effect or the level left; details: compound concentration 20 uM, read-out: % Ctrl
[7] = target: Vasopressin V1a receptor (Homo sapiens) (UniProt P37288); experiment: V1A/HUM Cerep selectivity data (BI); details: Compound concentration 20.0 uM
Sequence of Vasopressin V1a receptor (Homo sapiens) (P37288 whole entry, looked up): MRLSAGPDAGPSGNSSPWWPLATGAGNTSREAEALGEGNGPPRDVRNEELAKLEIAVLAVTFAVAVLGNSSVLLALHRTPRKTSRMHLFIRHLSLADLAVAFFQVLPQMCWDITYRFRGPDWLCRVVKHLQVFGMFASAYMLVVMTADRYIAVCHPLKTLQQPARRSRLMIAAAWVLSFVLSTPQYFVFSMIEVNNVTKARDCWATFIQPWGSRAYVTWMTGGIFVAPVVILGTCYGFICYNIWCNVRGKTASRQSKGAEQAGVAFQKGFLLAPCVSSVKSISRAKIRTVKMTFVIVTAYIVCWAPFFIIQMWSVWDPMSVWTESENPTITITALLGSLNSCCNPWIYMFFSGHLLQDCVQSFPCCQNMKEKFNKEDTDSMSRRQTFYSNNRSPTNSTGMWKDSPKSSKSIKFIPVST

[8] = target: T1, G protein-coupled receptor kinase 3 (Homo sapiens) (UniProt P35626); experiment: ADRBK2 Invitrogen selectivity data (BI); details: Compound concentration 3.0 uM
T1 sequence (whole entry): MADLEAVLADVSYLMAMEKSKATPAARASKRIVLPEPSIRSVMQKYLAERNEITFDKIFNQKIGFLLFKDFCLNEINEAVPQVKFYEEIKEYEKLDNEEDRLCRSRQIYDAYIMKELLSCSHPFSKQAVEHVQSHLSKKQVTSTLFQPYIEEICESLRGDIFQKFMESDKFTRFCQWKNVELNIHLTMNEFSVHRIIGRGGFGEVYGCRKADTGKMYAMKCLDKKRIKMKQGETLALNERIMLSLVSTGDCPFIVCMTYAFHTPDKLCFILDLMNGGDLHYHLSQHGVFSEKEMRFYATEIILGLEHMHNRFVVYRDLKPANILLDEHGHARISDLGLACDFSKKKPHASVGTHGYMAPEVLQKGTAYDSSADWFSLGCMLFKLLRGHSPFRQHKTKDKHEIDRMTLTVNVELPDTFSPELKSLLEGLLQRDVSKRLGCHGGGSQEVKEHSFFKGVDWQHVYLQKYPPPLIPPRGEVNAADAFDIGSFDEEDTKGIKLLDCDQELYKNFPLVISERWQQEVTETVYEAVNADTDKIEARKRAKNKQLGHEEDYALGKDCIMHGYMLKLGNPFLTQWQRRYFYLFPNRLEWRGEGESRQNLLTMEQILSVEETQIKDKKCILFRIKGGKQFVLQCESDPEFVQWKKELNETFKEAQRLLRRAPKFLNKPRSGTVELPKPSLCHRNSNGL

[9] = target: Cyclin-dependent kinase 7 (Homo sapiens) (UniProt P50613); experiment: CDK7CYCLIN Invitrogen selectivity data (BI); details: Compound concentration 3.0 uM
[10] = target: DNA-dependent protein kinase catalytic subunit (Homo sapiens) (UniProt P78527); experiment: DNA-PK Invitrogen selectivity data (BI); details: Compound concentration 3.0 uM
[11] = target: Dual specificity tyrosine-phosphorylation-regulated kinase 1B (Homo sapiens) (UniProt Q9Y463); experiment: DYRK1B Invitrogen selectivity data (BI); details: Compound concentration 3.0 uM
[12] = system: Epidermal growth factor receptor (Homo sapiens), P00533 [L858R]; experiment: EGFR L858R Invitrogen selectivity data (BI); details: Compound concentration 3.0 uM
[13] = target: Homeodomain-interacting protein kinase 2 (Homo sapiens) (UniProt Q9H2X6); experiment: HIPK2 Invitrogen selectivity data (BI); details: Compound concentration 3.0 uM
Sequence of Homeodomain-interacting protein kinase 2 (Homo sapiens) (Q9H2X6 whole entry, looked up): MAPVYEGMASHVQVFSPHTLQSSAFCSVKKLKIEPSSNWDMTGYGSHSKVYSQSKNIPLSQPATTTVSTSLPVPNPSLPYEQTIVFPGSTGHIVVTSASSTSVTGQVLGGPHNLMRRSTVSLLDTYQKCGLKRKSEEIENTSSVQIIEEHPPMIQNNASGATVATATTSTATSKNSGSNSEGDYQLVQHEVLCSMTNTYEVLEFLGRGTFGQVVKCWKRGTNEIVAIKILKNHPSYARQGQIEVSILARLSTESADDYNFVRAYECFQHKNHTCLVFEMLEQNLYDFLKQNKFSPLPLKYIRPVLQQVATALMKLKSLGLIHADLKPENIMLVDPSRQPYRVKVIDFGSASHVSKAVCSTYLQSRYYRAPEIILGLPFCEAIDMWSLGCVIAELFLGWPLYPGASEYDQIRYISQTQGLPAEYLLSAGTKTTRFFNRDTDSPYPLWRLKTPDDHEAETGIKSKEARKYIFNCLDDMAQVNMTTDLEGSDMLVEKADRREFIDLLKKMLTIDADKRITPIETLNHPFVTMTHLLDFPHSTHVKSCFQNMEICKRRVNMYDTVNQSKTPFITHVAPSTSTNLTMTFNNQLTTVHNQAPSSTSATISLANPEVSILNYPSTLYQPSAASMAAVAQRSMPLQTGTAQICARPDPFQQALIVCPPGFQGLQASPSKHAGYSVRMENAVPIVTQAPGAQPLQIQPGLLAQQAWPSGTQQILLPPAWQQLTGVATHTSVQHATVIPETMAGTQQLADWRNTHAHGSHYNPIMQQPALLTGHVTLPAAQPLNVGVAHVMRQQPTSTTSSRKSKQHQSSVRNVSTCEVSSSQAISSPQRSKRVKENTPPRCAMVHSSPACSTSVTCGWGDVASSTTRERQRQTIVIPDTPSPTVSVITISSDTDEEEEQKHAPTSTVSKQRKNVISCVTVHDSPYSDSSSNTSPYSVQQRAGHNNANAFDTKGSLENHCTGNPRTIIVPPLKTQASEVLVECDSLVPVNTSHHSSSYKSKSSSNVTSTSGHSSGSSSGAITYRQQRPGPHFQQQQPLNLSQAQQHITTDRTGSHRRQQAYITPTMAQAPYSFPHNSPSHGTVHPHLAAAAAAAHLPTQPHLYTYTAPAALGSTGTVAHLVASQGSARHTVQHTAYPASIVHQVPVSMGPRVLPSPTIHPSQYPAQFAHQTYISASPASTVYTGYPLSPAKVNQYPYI

[14] = target: Dual specificity mitogen-activated protein kinase kinase 2 (Homo sapiens) (UniProt P36507); experiment: MAP2K2 Invitrogen selectivity data (BI); details: Compound concentration 3.0 uM
Sequence of Dual specificity mitogen-activated protein kinase kinase 2 (Homo sapiens) (P36507 whole entry): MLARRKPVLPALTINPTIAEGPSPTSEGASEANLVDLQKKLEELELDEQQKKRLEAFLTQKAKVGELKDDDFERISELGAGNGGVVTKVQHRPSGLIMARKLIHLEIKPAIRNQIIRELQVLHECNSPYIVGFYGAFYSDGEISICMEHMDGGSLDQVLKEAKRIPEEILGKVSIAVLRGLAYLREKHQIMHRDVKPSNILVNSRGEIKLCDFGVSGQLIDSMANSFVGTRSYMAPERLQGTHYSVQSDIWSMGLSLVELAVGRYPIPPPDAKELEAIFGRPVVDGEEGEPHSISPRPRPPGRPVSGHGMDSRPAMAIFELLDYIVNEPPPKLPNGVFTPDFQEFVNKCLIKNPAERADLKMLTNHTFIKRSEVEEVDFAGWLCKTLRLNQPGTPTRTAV

[15] = target: Mitogen-activated protein kinase 14 (Homo sapiens) (UniProt Q16539); experiment: MAPK14P38A Invitrogen selectivity data (BI); details: Compound concentration 3.0 uM
Sequence of Mitogen-activated protein kinase 14 (Homo sapiens) (Q16539 whole entry): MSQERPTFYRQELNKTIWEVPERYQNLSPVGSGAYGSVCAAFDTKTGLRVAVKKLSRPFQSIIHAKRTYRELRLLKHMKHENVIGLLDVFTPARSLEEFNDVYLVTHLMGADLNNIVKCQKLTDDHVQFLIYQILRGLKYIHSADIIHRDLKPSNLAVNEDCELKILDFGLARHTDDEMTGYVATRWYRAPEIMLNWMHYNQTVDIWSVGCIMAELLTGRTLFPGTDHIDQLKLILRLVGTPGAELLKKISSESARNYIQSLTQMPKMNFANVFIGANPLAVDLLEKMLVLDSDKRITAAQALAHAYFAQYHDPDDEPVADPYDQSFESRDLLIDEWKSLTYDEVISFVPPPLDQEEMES

[16] = target: T2, Serine/threonine-protein kinase Nek1 (Homo sapiens) (UniProt Q96PY6); experiment: NEK1 Invitrogen selectivity data (BI); details: Compound concentration 3.0 uM
T2 sequence (whole entry): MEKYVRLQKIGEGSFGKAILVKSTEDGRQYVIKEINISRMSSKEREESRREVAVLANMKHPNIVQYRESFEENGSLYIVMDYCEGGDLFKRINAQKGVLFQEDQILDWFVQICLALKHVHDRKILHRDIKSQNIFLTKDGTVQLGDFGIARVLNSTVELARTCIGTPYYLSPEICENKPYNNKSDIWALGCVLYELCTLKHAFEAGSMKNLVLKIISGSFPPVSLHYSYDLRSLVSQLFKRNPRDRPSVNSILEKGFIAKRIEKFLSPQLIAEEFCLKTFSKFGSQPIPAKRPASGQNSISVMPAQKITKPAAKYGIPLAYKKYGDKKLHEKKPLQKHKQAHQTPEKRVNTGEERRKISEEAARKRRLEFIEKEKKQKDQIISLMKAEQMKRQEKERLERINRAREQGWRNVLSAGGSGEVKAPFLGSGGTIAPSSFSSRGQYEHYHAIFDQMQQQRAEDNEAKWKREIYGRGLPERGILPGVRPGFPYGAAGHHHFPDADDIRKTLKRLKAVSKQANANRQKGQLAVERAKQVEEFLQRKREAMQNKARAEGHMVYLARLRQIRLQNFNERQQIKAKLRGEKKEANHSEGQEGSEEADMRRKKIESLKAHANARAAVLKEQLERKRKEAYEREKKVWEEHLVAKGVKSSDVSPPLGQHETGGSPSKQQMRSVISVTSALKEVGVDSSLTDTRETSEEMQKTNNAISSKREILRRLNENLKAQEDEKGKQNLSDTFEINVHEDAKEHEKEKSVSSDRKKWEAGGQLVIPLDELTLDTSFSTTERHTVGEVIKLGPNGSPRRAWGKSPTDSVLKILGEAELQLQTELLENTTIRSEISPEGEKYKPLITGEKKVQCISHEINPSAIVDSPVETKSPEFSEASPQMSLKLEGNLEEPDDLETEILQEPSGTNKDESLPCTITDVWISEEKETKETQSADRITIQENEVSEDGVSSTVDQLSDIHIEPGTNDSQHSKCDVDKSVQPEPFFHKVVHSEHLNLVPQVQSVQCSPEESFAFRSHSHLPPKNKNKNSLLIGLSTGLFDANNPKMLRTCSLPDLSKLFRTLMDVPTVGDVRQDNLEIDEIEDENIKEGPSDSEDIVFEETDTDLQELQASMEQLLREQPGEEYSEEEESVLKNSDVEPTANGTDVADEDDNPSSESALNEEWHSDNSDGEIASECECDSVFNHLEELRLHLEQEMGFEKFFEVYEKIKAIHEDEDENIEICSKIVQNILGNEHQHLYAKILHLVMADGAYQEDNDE

[17] = system: Platelet-derived growth factor receptor alpha (Homo sapiens), P16234 [V561D]; experiment: PDGFRA V561D Invitrogen selectivity data (BI); details: Compound concentration 3.0 uM
Sequence of Platelet-derived growth factor receptor alpha (Homo sapiens), P16234 [V561D] (P16234 whole entry V561D): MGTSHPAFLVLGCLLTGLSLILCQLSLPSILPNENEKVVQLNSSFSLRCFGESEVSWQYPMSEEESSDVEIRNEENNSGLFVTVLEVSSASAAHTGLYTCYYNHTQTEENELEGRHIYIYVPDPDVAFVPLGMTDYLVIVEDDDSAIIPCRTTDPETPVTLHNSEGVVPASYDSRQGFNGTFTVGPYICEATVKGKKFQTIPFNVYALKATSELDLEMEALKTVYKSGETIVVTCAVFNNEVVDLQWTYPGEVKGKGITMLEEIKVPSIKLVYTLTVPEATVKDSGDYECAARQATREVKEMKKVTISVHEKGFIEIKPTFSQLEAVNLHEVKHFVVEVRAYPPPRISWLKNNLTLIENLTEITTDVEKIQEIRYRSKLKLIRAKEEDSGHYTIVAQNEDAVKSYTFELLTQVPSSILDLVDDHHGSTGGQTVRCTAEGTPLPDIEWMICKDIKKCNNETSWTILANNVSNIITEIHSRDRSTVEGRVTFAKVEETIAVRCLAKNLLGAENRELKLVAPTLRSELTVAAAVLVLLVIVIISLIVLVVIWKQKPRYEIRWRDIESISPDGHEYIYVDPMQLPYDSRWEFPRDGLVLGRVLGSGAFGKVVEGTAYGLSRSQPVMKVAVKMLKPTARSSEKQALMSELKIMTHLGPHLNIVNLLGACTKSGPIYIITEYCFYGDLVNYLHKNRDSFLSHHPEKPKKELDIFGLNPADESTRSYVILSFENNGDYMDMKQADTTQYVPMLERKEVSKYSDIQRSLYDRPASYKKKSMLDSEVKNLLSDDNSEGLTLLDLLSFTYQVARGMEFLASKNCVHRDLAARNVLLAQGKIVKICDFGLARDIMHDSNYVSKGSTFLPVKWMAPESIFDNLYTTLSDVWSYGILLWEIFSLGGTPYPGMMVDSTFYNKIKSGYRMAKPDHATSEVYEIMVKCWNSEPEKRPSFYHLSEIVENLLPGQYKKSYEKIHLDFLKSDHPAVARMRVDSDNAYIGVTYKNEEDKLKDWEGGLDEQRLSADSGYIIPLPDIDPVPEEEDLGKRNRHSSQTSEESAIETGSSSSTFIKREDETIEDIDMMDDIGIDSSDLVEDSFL

Sequence of Serine/threonine-protein kinase VRK2 (Homo sapiens) (Q86Y07 whole entry): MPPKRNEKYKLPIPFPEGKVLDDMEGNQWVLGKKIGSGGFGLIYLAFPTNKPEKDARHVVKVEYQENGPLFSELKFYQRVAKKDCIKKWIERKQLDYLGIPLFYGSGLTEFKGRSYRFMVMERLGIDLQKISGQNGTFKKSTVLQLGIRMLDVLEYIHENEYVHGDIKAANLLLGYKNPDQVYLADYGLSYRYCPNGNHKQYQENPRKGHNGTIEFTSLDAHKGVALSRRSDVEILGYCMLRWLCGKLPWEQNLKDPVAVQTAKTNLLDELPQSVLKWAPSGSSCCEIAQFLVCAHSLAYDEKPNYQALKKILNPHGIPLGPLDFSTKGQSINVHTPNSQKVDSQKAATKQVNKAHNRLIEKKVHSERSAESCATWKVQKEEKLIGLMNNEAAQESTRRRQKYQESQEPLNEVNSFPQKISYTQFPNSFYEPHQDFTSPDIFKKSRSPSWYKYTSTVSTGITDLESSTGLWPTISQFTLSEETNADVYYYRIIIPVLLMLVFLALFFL
Sequence of Adenosine receptor A3 (Homo sapiens) (P0DMS8 whole entry): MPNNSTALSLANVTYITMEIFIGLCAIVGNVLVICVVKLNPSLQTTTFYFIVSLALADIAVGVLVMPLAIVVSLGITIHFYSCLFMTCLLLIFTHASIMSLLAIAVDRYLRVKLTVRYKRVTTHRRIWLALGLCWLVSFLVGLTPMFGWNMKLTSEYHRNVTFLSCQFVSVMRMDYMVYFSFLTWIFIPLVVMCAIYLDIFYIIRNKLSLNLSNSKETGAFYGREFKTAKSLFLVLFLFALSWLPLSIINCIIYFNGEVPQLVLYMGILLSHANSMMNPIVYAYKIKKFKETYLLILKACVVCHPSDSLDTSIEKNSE

SMILES | residual activity [1] | residual activity [2] | residual activity [3] | activity at 20 µM [4] | residual activity [5] | activity at 20 µM [6] | residual activity [7] | residual activity [8] | residual activity [9] | residual activity [10] | residual activity [11] | residual activity [12] | residual activity [13] | residual activity [14] | residual activity [15] | residual activity [16] | residual activity [17]
CN(C)C(=O)Cn1cc(-c2nc(C3(c4ccc(-c5cnc(N)nc5)cc4)CC3)no2)cn1 [BI 0153] | 90% | – | – | – | – | – | – | – | – | – | – | – | – | – | – | – | –
CN(C)C(=O)Cn1cc(-c2nc([C@@](C)(c3ccc(-c4cnc(N)nc4)cc3)C3CC3)no2)cn1 [BI 665915] | – | 104% | 64% | 85% (not active) | 109% | 91% (not active) | 50% | 100% | 100% | 91% | 104% | 96% | 96% | 96% | 100% | 104% | 85%
